# From ChEMBL document CHEMBL1201862, “PubChem BioAssay data set” (2004)
#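 96-well plates; 48 h exposure; 5 concentrations. Endpoints by linear interpolation between flanking doses. Not reached: highest tested concentration assigned. Here, GI50 denotes the concentration required for 50% inhibition of growth.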 The source made the active and inactive calls. No stated cut-off is given here; in the data, active = GI50 up to about 1.1 µM and inactive = higher.
# How the values were obtained:
# Assay in all cases: NCI-60 cell line screen, 48 h
# HCT-116 = tested on: HCT-116
# SK-MEL-5 = tested on: SK-MEL-5
# NCI-H460 = tested on: NCI-H460
# NCI-H522 = tested on: NCI-H522
# NCI/ADR-RES = tested on: NCI/ADR-RES
# BT-549 = tested on: BT-549
# CCRF-CEM = tested on: CCRF-CEM
# T47D = tested on: T47D
# SNB-75 = tested on: SNB-75
# LOX IMVI = tested on: LOX IMVI
# OVCAR-5 = tested on: OVCAR-5
# SF-295 = tested on: SF-295
# IGROV-1 = tested on: IGROV-1
# NCI-H226 = tested on: NCI-H226
# UACC-257 = tested on: UACC-257
# UO-31 = tested on: UO-31
# 786-0 = tested on: 786-0
# Malme-3M = tested on: Malme-3M
# MDA-MB-231 = tested on: MDA-MB-231
# SN12C = tested on: SN12C
# Hs-578T = tested on: Hs-578T
# MCF7 = tested on: MCF7
# ACHN = tested on: ACHN
# RXF 393 = tested on: RXF 393
# SW-620 = tested on: SW-620
# M14 = tested on: M14
# HOP-92 = tested on: HOP-92
# COLO 205 = tested on: COLO 205
# A549 = tested on: A549
# UACC-62 = tested on: UACC-62
# NCI-H23 = tested on: NCI-H23
# A498 = tested on: A498
# SF-539 = tested on: SF-539
# PC-3 = tested on: PC-3
# KM12 = tested on: KM12
# HT-29 = tested on: HT-29
# MDA-MB-435 = tested on: MDA-MB-435
# SR = tested on: SR
# SNB-19 = tested on: SNB-19
# SK-OV-3 = tested on: SK-OV-3
# SF-268 = tested on: SF-268
# SK-MEL-28 = tested on: SK-MEL-28
# RPMI-8226 = tested on: RPMI-8226
# HOP-62 = tested on: HOP-62
# HL-60 = tested on: HL-60
# K562 = tested on: K562
# HCT-15 = tested on: HCT-15
# TK-10 = tested on: TK-10
# U-251 = tested on: U-251
# OVCAR-8 = tested on: OVCAR-8
# MOLT-4 = tested on: MOLT-4
# CAKI-1 = tested on: CAKI-1
# SK-MEL-2 = tested on: SK-MEL-2
# EKVX = tested on: EKVX
# MDA-N = tested on: MDA-N
# OVCAR-4 = tested on: OVCAR-4
# OVCAR-3 = tested on: OVCAR-3
# DU-145 = tested on: DU-145
# HCC 2998 = tested on: HCC 2998
structure (smiles),measurement,setting,value
CC(Oc1ccccc1)C(=O)NN (stereo not drawn),GI50,HCT-116,> 100 µM (inactive)
same,GI50,SK-MEL-5,> 100 µM (inactive)
same,GI50,NCI-H460,> 100 µM (inactive)
same,GI50,NCI-H522,79.3 µM (inactive)
same,GI50,NCI/ADR-RES,> 100 µM (inactive)
same,GI50,BT-549,> 100 µM (inactive)
same,GI50,CCRF-CEM,> 100 µM (inactive)
same,GI50,T47D,> 100 µM (inactive)
same,GI50,SNB-75,> 100 µM (inactive)
same,GI50,LOX IMVI,> 100 µM (inactive)
same,GI50,OVCAR-5,> 100 µM (inactive)
same,GI50,SF-295,> 100 µM (inactive)
same,GI50,IGROV-1,> 100 µM (inactive)
same,GI50,NCI-H226,> 100 µM (inactive)
same,GI50,UACC-257,> 100 µM (inactive)
same,GI50,UO-31,> 100 µM (inactive)
same,GI50,786-0,> 100 µM (inactive)
same,GI50,Malme-3M,> 100 µM (inactive)
same,GI50,MDA-MB-231,66.8 µM (inactive)
same,GI50,SN12C,> 100 µM (inactive)
same,GI50,Hs-578T,34.8 µM (inactive)
same,GI50,MCF7,> 100 µM (inactive)
same,GI50,ACHN,> 100 µM (inactive)
same,GI50,RXF 393,> 100 µM (inactive)
same,GI50,SW-620,> 100 µM (inactive)
same,GI50,M14,> 100 µM (inactive)
same,GI50,HOP-92,> 100 µM (inactive)
same,GI50,COLO 205,> 100 µM (inactive)
same,GI50,A549,> 100 µM (inactive)
same,GI50,UACC-62,> 100 µM (inactive)
same,GI50,NCI-H23,> 100 µM (inactive)
same,GI50,A498,> 100 µM (inactive)
same,GI50,SF-539,> 100 µM (inactive)
same,GI50,PC-3,> 100 µM (inactive)
same,GI50,KM12,> 100 µM (inactive)
same,GI50,HT-29,> 100 µM (inactive)
same,GI50,MDA-MB-435,> 100 µM (inactive)
same,GI50,SR,> 100 µM (inactive)
same,GI50,SNB-19,> 100 µM (inactive)
same,GI50,SK-OV-3,> 100 µM (inactive)
same,GI50,SF-268,> 100 µM (inactive)
same,GI50,SK-MEL-28,> 100 µM (inactive)
same,GI50,RPMI-8226,> 100 µM (inactive)
same,GI50,HOP-62,> 100 µM (inactive)
same,GI50,HL-60,> 100 µM (inactive)
same,GI50,K562,> 100 µM (inactive)
same,GI50,HCT-15,> 100 µM
same,GI50,TK-10,> 100 µM (inactive)
same,GI50,U-251,> 100 µM (inactive)
same,GI50,OVCAR-8,> 100 µM (inactive)
same,GI50,MOLT-4,> 100 µM (inactive)
same,GI50,CAKI-1,> 100 µM (inactive)
same,GI50,SK-MEL-2,> 100 µM (inactive)
same,GI50,EKVX,> 100 µM (inactive)
same,GI50,MDA-N,> 100 µM (inactive)
same,GI50,OVCAR-4,> 100 µM (inactive)
same,GI50,OVCAR-3,> 100 µM (inactive)
same,GI50,DU-145,> 100 µM (inactive)
same,GI50,HCC 2998,> 100 µM (inactive)
O=[N+]([O-])c1cc([As](Br)c2ccc(O)c([N+](=O)[O-])c2)ccc1O,GI50,HCT-116,2 µM (inactive)
same,GI50,SK-MEL-5,1.49 µM (inactive)
same,GI50,NCI-H460,3.12 µM (inactive)
same,GI50,NCI-H522,0.145 µM (active)
same,GI50,NCI/ADR-RES,2.77 µM (inactive)
same,GI50,BT-549,1.88 µM (inactive)
same,GI50,CCRF-CEM,0.167 µM (active)
same,GI50,T47D,0.204 µM (active)
same,GI50,SNB-75,1.93 µM (inactive)
same,GI50,LOX IMVI,1.48 µM (inactive)
same,GI50,OVCAR-5,2.05 µM (inactive)
same,GI50,SF-295,1.8 µM (inactive)
same,GI50,IGROV-1,1.47 µM (inactive)
same,GI50,NCI-H226,1.5 µM (inactive)
same,GI50,UACC-257,1.69 µM (inactive)
same,GI50,UO-31,1.61 µM (inactive)
same,GI50,786-0,1.44 µM (inactive)
same,GI50,Malme-3M,0.632 µM (active)
same,GI50,MDA-MB-231,1.39 µM (inactive)
same,GI50,SN12C,1.65 µM (inactive)
same,GI50,Hs-578T,2.41 µM (inactive)
same,GI50,MCF7,1.27 µM (inactive)
same,GI50,ACHN,1.86 µM (inactive)
same,GI50,RXF 393,1.56 µM (inactive)
same,GI50,SW-620,0.733 µM (active)
same,GI50,M14,2.03 µM (inactive)
same,GI50,HOP-92,1.38 µM (inactive)
same,GI50,COLO 205,1.26 µM (inactive)
same,GI50,A549,2.62 µM (inactive)
same,GI50,UACC-62,1.47 µM (inactive)
same,GI50,NCI-H23,2.17 µM (inactive)
same,GI50,A498,1.95 µM (inactive)
same,GI50,SF-539,1.77 µM (inactive)
same,GI50,PC-3,1.95 µM (inactive)
same,GI50,KM12,2 µM (inactive)
same,GI50,HT-29,3.43 µM (inactive)
same,GI50,MDA-MB-435,1.78 µM (inactive)
same,GI50,SR,0.383 µM (active)
same,GI50,SNB-19,1.94 µM (inactive)
same,GI50,SK-OV-3,3.39 µM (inactive)
same,GI50,SF-268,2.14 µM (inactive)
same,GI50,SK-MEL-28,1.63 µM (inactive)
same,GI50,RPMI-8226,0.208 µM (active)
same,GI50,HOP-62,1.91 µM (inactive)
same,GI50,HL-60,1.17 µM (inactive)
same,GI50,K562,0.462 µM (active)
same,GI50,HCT-15,1.99 µM
same,GI50,TK-10,1.58 µM (inactive)
same,GI50,U-251,1.82 µM (inactive)
same,GI50,OVCAR-8,1.79 µM (inactive)
same,GI50,MOLT-4,0.259 µM (active)
same,GI50,CAKI-1,1.7 µM (inactive)
same,GI50,SK-MEL-2,0.746 µM (active)
same,GI50,EKVX,1.87 µM (inactive)
same,GI50,MDA-N,1.53 µM (inactive)
same,GI50,OVCAR-4,1.66 µM (inactive)
same,GI50,OVCAR-3,1.81 µM (inactive)
same,GI50,DU-145,2 µM (inactive)
same,GI50,HCC 2998,1.02 µM (active)
